Test results taken from patent publication US12297220B2, “Phenethylamines and cathinones precursors” (Transcend Therapeutics, Inc., priority 2022, dated 2025).

Experiments:
[1] = system: healthy volunteers; conditions: self-administration; cited from earlier work
[2] = system: fear extinction recall; conditions: 7.5 mg/kg, 30 minutes prior to extinction training; cited from earlier work
[3] = system: PTSD; conditions: clinical case series of 21 individuals; cited from earlier work
[4] = system: open field test; conditions: cited from earlier work
[5] = system: rat forced swim test; test: Forced swim test (FST), antidepressant-like activity; format: in vivo
Experimental: The forced swim test (FST) is a classic model to assess the antidepressant-like activity of compounds that has been in use for over 40 years (Porsolt et al. (1977) Nature 266:730-732; Detke et al. (1995) Psychopharmacology 121:66-72). […] A single dose of 5 mg/kg methylone reduces immobility by approximately 50% compared to vehicle-treated controls, whereas a 15 mg/kg dose reduces immobility by nearly 100%. Accompanying changes in climbing and/or swimming behavior reflect noradrenergic and serotonergic activities of methylone, respectively.
All FST studies are performed and scored by an experimenter blind to treatment group and according to standard protocols. Briefly, rats are placed in a circular plexiglass container filled with water. Water temperature is maintained at 22-25° C. and changed for every animal. Day 1 (Training) consists of a 15 min acclimation trial, and Day 2 (Testing, 24 h later) consists of the 5 min test. A time sampling procedure is employed where animals are observed every 5 seconds for the duration of the test session (60 counts or 5 minutes) and scored for immobility (defined as the failure to struggle), swimming (defined as a circular movement around the tank), or climbing (defined as an upwards escape behavior). Data are expressed as the percent of the testing session (e.g., the number of immobility counts divided by 60). […]

[6] = system: mouse model of PTSD; test: Fear extinction recall in a mouse model of PTSD; format: in vivo; conditions: 30 mg/kg, IP
Experimental: FIGS. 1A-1D: Methylone improves fear extinction recall in a mouse model of PTSD. (FIG. 1A) Schematic of experimental design. A single CS—US (tone-shock) pairing on day 1 was followed by 6 CS presentations in a novel context (context B). Methylone or saline vehicle was injected 30 min prior to extinction training on day 2. On day 3, the time spent freezing to the CS was quantified. […] (FIG. 1C) The time freezing before vs. during each of 6 cues on day 3 (to control for locomotor effects) are shown. There was a significant cue×drug interaction (F(5, 130)=2.409, p<0.05). […] N=12 for methylone group (30 mg/kg, IP, orange diamonds) and N=16 for saline control group (black squares). *p<0.05
Effective PTSD treatments facilitate the disassociation between a traumatic memory and the patient's fear response, making cues for the traumatic memory evoke less of a fear response. This is modeled in the mouse fear extinction paradigm which takes place over 3 days. On day 1 (fear conditioning), mice are trained to acquire a “traumatic memory,” namely associating the conditioned stimulus (CS, tone) to the unconditioned stimulus (US, foot shock). On day 2 (extinction training), they are trained to forget the traumatic memory association by presenting the CS 6 times (with no US) in a novel environment. On day 3 (extinction recall), the mice are “asked” if that tone (CS) still elicits a fearful response, as measured by the time spent freezing when the tone is presented. Less time freezing means better extinction recall. Drugs that improve extinction recall reduce freezing time on day 3, and, therefore, show potential as a PTSD treatment.
Using these methods, prodrugs are administered to mice and tested for efficacy in the fear extinction model to evaluate their efficacy to treat PTSD and other memory disorders.

[7] = Chemical stability in phosphate buffer without hepatocytes (negative control); format: physicochemical; conditions: phosphate buffer pH 6.8 at 37° C., up to 2 hours
Experimental: (§1) Bioactivation Potential of Prodrug Candidates: After a prodrug is synthesized, its bioactivation potential to release methylone is assessed under in vitro conditions. As the prodrugs are designed to be enzymatically activated by esterases and amidases/peptidases found in the blood and/or the liver, each prodrug is incubated in human and rat whole blood as well as liver hepatocytes. In these assays, the percentage of released parent methylone and of remaining prodrug is measured at different timepoints for a period of 2 hours. A chemical stability assessment of each prodrug is also performed under various pH conditions to ensure that the methylone released is a result of enzymatic hydrolysis. Prodrugs that show in vitro bioactivation are then administered (IV/PO) to rats, and blood samples are collected to assess the pharmacokinetic profile of each prodrug.
When compound 50 was incubated with human hepatocytes under the conditions described above, at t=60 minutes, approximately 100% of the prodrug had been converted to methylone with a total recovery of approximately 100%.

[8] = system: human hepatocytes; test: Prodrug bioactivation / metabolic stability in hepatocytes; format: in vitro ADME; conditions: t=60 minutes
Experimental: as §1
For example, the metabolic stability of prodrug candidates to release methylone could be assessed in vitro according to the following protocol: cryopreserved human and rat hepatocytes are thawed in recovery media and diluted in plating media to a viable cell density of 1×10^6 cells/mL. Viability is determined by trypan blue exclusion. […] All samples, including analytical standards, are analyzed by LC-MS/MS to measure the concentration of methylone released and the concentration of the corresponding prodrug remaining. […]

SMILES | systolic and diastolic blood pressure [1] | reduced freezing compared to saline injected controls (extinction recall) [2] [%] | patients with improved symptoms of PTSD [3] [%] | heart rate [1] | thigmotaxis (time spent hugging the perimeter of the open field) ([4]; 5, 10, 20 mg/kg, SC, rats) | locomotor activity in the OFT ([4]; rat, in vivo) | time spent in the center vs the periphery in the OFT ([4]; rat, in vivo) | antidepressant-like effect in the rat forced swim test [5] | fear extinction recall [6] | Freezing time during the first cue on day 3 (extinction recall) compared to saline ([6]; 30 min prior to extinction training, p<0.05) | locomotor changes on day 3 ([6]; p>0.05) | release of parent methylone in absence of hepatocytes [7] | prodrug converted to methylone [8]
CNC(C)Cc1ccc2c(c1)OCO2 (centres unmarked) [MDMA] | significant increase | 35 | – | – | – | – | – | – | – | – | – | – | –
CNC(C)C(=O)c1ccc2c(c1)OCO2 (centres unmarked) [Methylone, methylone] | significant increase | – | 81 | increase in heart rate | reduce thigmotaxis | increases locomotor activity | reduces time spent in the center vs the periphery | robust, dose-dependent antidepressant-like effect | significantly improves fear extinction recall | significantly reduced | No locomotor changes were observed | – | –
CC(OC(=O)C(C)C)OC(=O)N(C)C(C)C(=O)c1ccc2c(c1)OCO2 (centres unmarked) [compound 50, 1-(((1-(benzo[d][1,3]dioxol-5-yl)-1-oxopropan-2-yl)(methyl)carbamoyl)oxy)ethyl isobutyrate] | – | – | – | – | – | – | – | – | – | – | – | no parent methylone was released | approximately 100%
